From ChEMBL document CHEMBL1139192, “Novel bis(indolyl)maleimide pyridinophanes that are potent, selective inhibitors of glycogen synthase kinase-3” (Bioorg Med Chem Lett, 2007)

What was measured:
Homo sapiens [1] = species: Homo sapiens; test: Inhibition of human CDK7/Cyclin H at 1 uM relative to control; values are per cent of control
Homo sapiens [2] = species: Homo sapiens; test: Inhibition of human PKA at 1 uM relative to control; values are per cent of control
[3] = target: Serine/threonine-protein kinase PAK 2 (Homo sapiens) (UniProt Q13177); test: Inhibition of human PAK2 at 1 uM relative to control; values are per cent of control
[4] = target: Glycogen synthase kinase-3 beta (Homo sapiens, UniProt P49841); test: Residual activity of human GSK3-beta at 1 uM relative to control
Homo sapiens [5] = species: Homo sapiens; test: Residual activity of human CDK1/Cyclin B at 1 uM relative to control
[6] = target: T1, Ephrin type-B receptor 4 (Homo sapiens) (UniProt P54760); test: Residual activity of human EphB4 at 1 uM relative to control
T1 sequence (whole entry): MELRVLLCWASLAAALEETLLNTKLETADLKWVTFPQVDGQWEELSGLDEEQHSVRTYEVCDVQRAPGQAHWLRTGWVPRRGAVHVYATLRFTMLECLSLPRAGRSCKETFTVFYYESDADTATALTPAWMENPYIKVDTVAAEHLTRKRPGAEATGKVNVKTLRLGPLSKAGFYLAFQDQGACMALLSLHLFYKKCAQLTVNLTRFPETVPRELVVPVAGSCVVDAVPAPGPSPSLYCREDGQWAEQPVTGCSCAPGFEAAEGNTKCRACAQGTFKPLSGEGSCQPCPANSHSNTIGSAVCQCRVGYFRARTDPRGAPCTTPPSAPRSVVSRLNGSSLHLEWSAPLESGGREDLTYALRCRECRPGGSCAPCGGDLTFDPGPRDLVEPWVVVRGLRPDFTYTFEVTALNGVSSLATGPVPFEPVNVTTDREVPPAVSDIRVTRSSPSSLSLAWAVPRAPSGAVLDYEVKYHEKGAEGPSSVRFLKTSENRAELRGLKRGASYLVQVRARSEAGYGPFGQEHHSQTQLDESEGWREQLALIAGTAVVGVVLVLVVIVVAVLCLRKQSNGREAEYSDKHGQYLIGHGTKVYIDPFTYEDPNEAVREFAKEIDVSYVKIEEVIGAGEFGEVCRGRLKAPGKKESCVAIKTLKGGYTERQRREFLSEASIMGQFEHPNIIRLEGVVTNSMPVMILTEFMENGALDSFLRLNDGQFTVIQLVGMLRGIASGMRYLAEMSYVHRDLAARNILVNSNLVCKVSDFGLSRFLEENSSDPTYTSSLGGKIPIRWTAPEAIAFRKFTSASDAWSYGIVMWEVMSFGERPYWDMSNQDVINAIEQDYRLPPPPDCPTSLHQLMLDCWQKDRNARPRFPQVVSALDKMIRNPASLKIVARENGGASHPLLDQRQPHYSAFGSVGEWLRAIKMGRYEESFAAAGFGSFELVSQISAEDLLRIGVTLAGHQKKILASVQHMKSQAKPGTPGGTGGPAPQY

[7] = target: Tyrosine-protein kinase Fes/Fps (Homo sapiens) (UniProt P07332); test: Inhibition of human Fes at 1 uM relative to control; values are per cent of control
[8] = target: Ribosomal protein S6 kinase alpha-1 (Rattus norvegicus) (UniProt Q63531); test: Inhibition of rat Rsk1 at 1 uM relative to control; values are per cent of control
[9] = target: T2, Mitogen-activated protein kinase 12 (Homo sapiens) (UniProt P53778); test: Inhibition of human SAPK3 at 1 uM relative to control; values are per cent of control
T2 sequence (whole entry): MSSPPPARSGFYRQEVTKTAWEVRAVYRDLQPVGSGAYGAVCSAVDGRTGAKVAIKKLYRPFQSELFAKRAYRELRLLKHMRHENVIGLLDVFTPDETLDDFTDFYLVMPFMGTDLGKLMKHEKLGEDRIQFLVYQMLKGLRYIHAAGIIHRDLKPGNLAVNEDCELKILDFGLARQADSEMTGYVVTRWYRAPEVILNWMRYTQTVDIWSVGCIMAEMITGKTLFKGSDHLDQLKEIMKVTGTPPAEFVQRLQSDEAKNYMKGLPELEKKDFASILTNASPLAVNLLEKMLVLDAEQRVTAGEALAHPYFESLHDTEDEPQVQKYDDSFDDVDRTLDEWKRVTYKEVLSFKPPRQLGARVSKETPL

[10] = target: T3, Serine/threonine-protein kinase D2 (Homo sapiens) (UniProt Q9BZL6); test: Inhibition of human PKD2 at 1 uM relative to control; values are per cent of control
T3 sequence (whole entry): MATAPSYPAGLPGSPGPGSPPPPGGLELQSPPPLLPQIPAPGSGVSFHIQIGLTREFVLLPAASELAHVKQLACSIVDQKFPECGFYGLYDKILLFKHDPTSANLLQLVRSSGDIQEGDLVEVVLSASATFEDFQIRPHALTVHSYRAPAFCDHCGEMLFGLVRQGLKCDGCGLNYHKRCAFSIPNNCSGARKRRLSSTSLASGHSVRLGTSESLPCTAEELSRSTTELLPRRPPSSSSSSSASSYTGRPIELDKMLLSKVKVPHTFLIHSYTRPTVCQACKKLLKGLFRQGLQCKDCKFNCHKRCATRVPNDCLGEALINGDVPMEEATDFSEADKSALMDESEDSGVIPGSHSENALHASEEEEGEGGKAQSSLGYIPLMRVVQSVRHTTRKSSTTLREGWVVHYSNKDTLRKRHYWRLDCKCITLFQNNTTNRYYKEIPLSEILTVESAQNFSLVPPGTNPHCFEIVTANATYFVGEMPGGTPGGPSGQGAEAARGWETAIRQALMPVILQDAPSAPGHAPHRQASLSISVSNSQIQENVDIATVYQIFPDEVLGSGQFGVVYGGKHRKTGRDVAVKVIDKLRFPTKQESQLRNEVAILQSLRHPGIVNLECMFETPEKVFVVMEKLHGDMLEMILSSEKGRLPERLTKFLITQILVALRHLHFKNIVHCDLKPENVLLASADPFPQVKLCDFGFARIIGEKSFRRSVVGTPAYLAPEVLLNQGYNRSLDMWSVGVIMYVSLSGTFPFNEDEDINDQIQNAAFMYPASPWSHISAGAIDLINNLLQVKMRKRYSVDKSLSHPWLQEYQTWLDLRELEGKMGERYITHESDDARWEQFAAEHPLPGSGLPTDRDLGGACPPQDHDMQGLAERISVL

Chain of Glycogen synthase kinase-3 beta (P49841 whole entry, looked up): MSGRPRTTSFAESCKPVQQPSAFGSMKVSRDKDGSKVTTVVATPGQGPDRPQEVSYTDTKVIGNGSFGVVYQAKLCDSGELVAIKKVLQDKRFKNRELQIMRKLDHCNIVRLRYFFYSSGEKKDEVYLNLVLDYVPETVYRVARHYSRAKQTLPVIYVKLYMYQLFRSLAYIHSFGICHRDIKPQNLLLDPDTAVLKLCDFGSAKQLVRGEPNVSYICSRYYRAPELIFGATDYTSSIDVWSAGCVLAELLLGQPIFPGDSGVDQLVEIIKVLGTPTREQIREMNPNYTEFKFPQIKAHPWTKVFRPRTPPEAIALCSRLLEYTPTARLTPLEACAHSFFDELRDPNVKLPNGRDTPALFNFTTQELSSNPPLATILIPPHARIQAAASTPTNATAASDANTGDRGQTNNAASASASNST
Chain of Tyrosine-protein kinase Fes/Fps (Homo sapiens) (P07332 whole entry): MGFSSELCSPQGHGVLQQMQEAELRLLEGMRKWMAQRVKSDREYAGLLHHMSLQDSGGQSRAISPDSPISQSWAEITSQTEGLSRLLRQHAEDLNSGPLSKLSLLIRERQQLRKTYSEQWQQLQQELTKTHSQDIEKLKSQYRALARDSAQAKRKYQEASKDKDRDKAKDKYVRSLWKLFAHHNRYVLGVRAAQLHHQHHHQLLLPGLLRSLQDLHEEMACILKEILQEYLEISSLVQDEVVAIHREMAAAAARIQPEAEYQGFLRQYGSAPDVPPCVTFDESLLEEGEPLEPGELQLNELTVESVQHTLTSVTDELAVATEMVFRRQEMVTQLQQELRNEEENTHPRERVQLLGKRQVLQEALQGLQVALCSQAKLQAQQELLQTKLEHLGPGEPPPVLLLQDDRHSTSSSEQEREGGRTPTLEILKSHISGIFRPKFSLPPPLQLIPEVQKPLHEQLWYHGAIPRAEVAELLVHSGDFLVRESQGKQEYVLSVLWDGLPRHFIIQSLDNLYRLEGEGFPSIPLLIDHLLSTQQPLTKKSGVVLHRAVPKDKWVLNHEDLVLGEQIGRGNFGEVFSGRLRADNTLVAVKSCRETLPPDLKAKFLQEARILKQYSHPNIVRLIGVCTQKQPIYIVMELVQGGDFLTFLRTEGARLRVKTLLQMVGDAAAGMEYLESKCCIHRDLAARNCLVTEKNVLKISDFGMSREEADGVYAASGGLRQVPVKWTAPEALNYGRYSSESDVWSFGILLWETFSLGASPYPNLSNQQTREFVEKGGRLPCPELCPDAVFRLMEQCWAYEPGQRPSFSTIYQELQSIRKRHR
Chain of Ribosomal protein S6 kinase alpha-1 (Rattus norvegicus) (Q63531 whole entry): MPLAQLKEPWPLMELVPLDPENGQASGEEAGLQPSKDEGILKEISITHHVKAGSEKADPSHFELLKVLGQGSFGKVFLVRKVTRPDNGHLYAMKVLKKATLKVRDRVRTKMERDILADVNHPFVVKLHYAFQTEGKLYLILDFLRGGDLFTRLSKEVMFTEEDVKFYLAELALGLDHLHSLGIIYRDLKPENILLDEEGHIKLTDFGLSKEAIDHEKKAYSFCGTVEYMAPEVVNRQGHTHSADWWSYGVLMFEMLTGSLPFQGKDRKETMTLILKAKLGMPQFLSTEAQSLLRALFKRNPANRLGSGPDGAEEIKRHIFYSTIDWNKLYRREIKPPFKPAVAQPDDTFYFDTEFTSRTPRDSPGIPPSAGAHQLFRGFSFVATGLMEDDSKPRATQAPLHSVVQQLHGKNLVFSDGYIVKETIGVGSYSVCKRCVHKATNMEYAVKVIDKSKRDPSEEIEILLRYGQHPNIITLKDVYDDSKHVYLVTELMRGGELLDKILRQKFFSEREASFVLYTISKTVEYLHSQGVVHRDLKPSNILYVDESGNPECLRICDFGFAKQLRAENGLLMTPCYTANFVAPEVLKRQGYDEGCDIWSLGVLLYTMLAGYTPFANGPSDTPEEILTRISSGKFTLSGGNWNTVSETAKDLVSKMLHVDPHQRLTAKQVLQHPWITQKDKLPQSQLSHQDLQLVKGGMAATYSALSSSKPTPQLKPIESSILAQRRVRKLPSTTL
Chain of Serine/threonine-protein kinase PAK 2 (Homo sapiens) (Q13177 whole entry): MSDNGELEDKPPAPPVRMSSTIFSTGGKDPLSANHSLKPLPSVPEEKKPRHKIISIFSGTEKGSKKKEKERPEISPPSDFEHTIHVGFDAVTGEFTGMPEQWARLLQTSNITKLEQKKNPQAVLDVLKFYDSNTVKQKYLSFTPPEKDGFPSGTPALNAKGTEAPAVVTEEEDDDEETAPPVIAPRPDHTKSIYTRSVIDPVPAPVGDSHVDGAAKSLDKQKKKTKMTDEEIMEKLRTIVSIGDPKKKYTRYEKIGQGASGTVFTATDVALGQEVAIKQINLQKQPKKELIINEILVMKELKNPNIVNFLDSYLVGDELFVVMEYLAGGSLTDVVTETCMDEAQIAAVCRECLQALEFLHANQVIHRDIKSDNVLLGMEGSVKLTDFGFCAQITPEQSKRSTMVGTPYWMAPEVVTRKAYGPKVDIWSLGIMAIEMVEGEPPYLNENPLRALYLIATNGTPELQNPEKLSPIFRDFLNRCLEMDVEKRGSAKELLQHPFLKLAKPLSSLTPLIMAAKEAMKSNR

Row | residual activity (Homo sapiens [1]) | residual activity (Homo sapiens [2]) | residual activity [3] | residual activity [4] | residual activity (Homo sapiens [5]) | residual activity [6] | residual activity [7] | residual activity [8] | residual activity [9] | residual activity [10] | Structure (SMILES)
1 | 89% | 90% | 93% | 1% | 78% | 89% | 107% | 37% | 78% | 100% | CN(C)c1nc2ccc1CCCn1cc(c3ccccc31)C1=C(C(=O)NC1=O)c1cn(c3ccccc13)CC2
2 | 108% | 95% | 103% | 1% | 98% | 103% | 133% | 7% | 115% | 97% | CN(C)c1cc2cc(n1)CCCn1cc(c3ccccc31)C1=C(C(=O)NC1=O)c1cn(c3ccccc13)CCC2
3 | 107% | 104% | 100% | 3% | 80% | 109% | 139% | 5% | 103% | 103% | O=C1NC(=O)C2=C1c1cn(c3ccccc13)CCCc1cc(nc(N3CCCC3)c1)CCCn1cc2c2ccccc21
4 | 111% | 102% | 102% | 7% | – | 100% | 130% | 67% | 114% | 115% | O=C1NC(=O)C2=C1c1cn(c3ccccc13)CCCc1ccc(c(N3CCCC3)n1)CCCn1cc2c2ccccc21
